Measured values from patent US10836706B2, “Bacterial efflux pump inhibitors” (RUTGERS, THE STATE UNIVERSITY OF NEW JERSEY, priority 2016, dated 2020).

How the values were obtained:
[1] = test system: Escherichia coli ATCC 25922; experiment: Test A: MIC-based assay for potentiation of antibiotics that are known efflux pump substrates; assay type: cell-based; conditions: antibiotic MIC (e.g., clarithromycin and levofloxacin) in presence vs absence of the EPI compound; EPI at 1.6 to 12.5 μg/mL in CAMH broth, 24 hours at 37° C.
Text: (§1) The ability of a compound disclosed herein to inhibit a bacterial efflux pump can be determined using a method like Test A or Test B as described in Example 20 and as shown in Table 1. Test A. Minimum Inhibitory Concentration (MIC)-Based Assay for Potentiation of Antibiotics that are Known Efflux Pump Substrates: MIC-based assays were used to evaluate the impact of potential efflux pump inhibiting (EPI) compounds on the MICs of antibiotics (e.g., clarithromycin and levofloxacin) known to be substrates for Gram-negative bacterial efflux pumps. The assays were conducted in accordance with Clinical and Laboratory Standards Institute (CLSI) guidelines for broth microdilution, with the modification that assays were conducted in the presence and absence of the test EPI compounds. […] Log-phase Gram-negative bacteria were added to 96-well microtiter plates (at 5×10^5 colony forming units (CFU) per mL) containing two-fold serial dilutions of antibiotic in CAMH broth either in the absence or presence of the test EPI compounds. In all assays, each serial dilution of antibiotic was present in duplicate. The final volume in each well was 0.1 mL, and the microtiter plates were incubated aerobically for 24 hours at 37° C. […] The following Gram-negative bacterial strains were included in these assays: Escherichia coli ATCC 25922

[2] = test system: Pseudomonas aeruginosa ATCC 27853; experiment: as above; assay type: cell-based; conditions: antibiotic MIC (e.g., clarithromycin and levofloxacin) in presence vs absence of the EPI compound; EPI at 1.6 to 12.5 g/mL in CAMH broth, 24 hours at 37° C.
Text: as §1, with “Pseudomonas aeruginosa” for “Escherichia coli”, “27853.” for “25922”

Cl.Cl.NCCC[C@H](N)COc1cc(-c2ccc(C(F)(F)F)cc2)cc(-c2ccc(C(F)(F)F)cc2)c1 [Example 16, (S)-5-((4,4″-bis(trifluoromethyl)-[1,1′:3′,1″-terphenyl]-5′-yl)oxy)pentane-1,4-diaminium chloride]
Enhanced Activity in E. coli [1]: <2x
Enhanced Activity in P. aeruginosa [2]: ≥2x

COc1ccc(-c2cc(OC[C@@H](N)CCCN)cc(-c3ccc(OC)cc3)c2)cc1.Cl.Cl [Example 17, (S)-5-((4,4″-dimethoxy-[1,1′:3′,1″-terphenyl]-5′-yl)oxy)pentane-1,4-diaminium chloride]
Enhanced Activity in E. coli [1]: ≥1024x
Enhanced Activity in P. aeruginosa [2]: ≥2x

CC(C)C(N)CC[C@H](N)CNCc1cc(-c2ccc(F)cc2)cc(-c2ccc(F)cc2)c1.Cl.Cl.Cl (stereo partly drawn) [Example 5, (2S)—N^1-((4,4″-difluoro-[1,1′:3′,1″-terphenyl]-5′-yl)methyl)-6-methylheptane-1,2,5-triaminium chloride]
Enhanced Activity in E. coli [1]: 32 x
Enhanced Activity in P. aeruginosa [2]: ≥2x

Cl.Cl.Cl.NCCC[C@H](N)CNCCc1cc(C(F)(F)F)cc(C(F)(F)F)c1 [Example 3, (S)—N^1-(3,5-bis(trifluoromethyl)phenethyl)pentane-1,2,5-triaminium chloride]
Enhanced Activity in E. coli [1]: ≥4x
Enhanced Activity in P. aeruginosa [2]: ≥2x

Cl.Cl.NCCC[C@H](N)COc1cc(-c2ccc(F)cc2)cc(-c2ccc(F)cc2)c1 [Example 13, (S)-5-((4,4″-difluoro-[1,1′:3′,1″-terphenyl]-5′-yl)oxy)pentane-1,4-diaminium chloride]
Enhanced Activity in E. coli [1]: 256x
Enhanced Activity in P. aeruginosa [2]: <2x

Cl.Cl.NCCC[C@@H](N)COc1cc(-c2ccc(F)c(F)c2)cc(-c2ccc(F)c(F)c2)c1 [Example 19, (R)-5-((3,3″,4,4″-tetrafluoro-[1,1′:3′,1″-terphenyl]-5′-yl)oxy)pentane-1,4-diaminium chloride]
Enhanced Activity in E. coli [1]: ≥2x
Enhanced Activity in P. aeruginosa [2]: ≥1x

Cl.Cl.Cl.NCCC[C@H](N)CNCCc1cc(-c2ccc(F)cc2)cc(-c2ccc(F)cc2)c1 [Example 10, (S)—N1-(2-(4,4″-difluoro-[1,1′:3′,1″-terphenyl]-5′-yl)ethyl)pentane-1,2,5-triaminium chloride]
Enhanced Activity in E. coli [1]: ≥1024x
Enhanced Activity in P. aeruginosa [2]: ≥64x

CC(C)C(N)CC[C@H](N)COc1cc(-c2ccc(F)cc2)cc(-c2ccc(F)cc2)c1.Cl.Cl (stereo partly drawn) [Example 14, (2S)-1-((4,4″-difluoro-[1,1′:3′,1″-terphenyl]-5′-yl)oxy)-6-methylheptane-2,5-diaminium]
Enhanced Activity in E. coli [1]: <2x
Enhanced Activity in P. aeruginosa [2]: <2x

Cl.Cl.Cl.NCCC[C@H](N)CNCc1cc(C(F)(F)F)cc(C(F)(F)F)c1 [Example 1, (S)—N^1-(3,5-bis(trifluoromethyl)benzyl)pentane-1,2,5-triaminium Chloride]
Enhanced Activity in E. coli [1]: ≥2x
Enhanced Activity in P. aeruginosa [2]: <2x

CC(C)(CNC[C@@H](N)CCCN)c1cc(-c2ccc(F)cc2)cc(-c2ccc(F)cc2)c1.Cl.Cl.Cl [Example 9, (S)—N^1-(2-(4,4″-difluoro-[1,1′:3′,1″-terphenyl]-5′-yl)-2-methylpropyl)pentane-1,2,5-triaminium chloride]
Enhanced Activity in E. coli [1]: ≥128 x
Enhanced Activity in P. aeruginosa [2]: ≥2x

NCCC[C@H](N)CNCc1cc(-c2ccccc2)cc(-c2ccccc2)c1 [Example 15, (S)—N1-([1,1′:3′,1″-terphenyl]-5′-ylmethyl)pentane-1,2,5-triaminium Chloride]
Enhanced Activity in E. coli [1]: ≥128x
Enhanced Activity in P. aeruginosa [2]: ≥16x

Cl.Cl.NCCC[C@@H](N)COc1cc(-c2cccc(F)c2)cc(-c2cccc(F)c2)c1 [Example 18, (R)-5-((3,3″-difluoro-[1,1′:3′,1″-terphenyl]-5′-yl)oxy)pentane-1,4-diaminium chloride]
Enhanced Activity in E. coli [1]: ≥512x
Enhanced Activity in P. aeruginosa [2]: ≥1x

Cl.Cl.NCCC[C@@H](N)COc1cc(-c2ccc(F)cc2)cc(-c2ccc(F)cc2)c1 [Example 11, (R)-5-((4,4″-difluoro-[1,1′:3′,1″-terphenyl]-5′-yl)oxy)pentane-1,4-diaminium chloride]
Enhanced Activity in E. coli [1]: ≥1024 x
Enhanced Activity in P. aeruginosa [2]: ≥16x

Cl.Cl.Cl.NCCC[C@H](N)CNCc1cc(-c2ccc(F)cc2)cc(-c2ccc(F)cc2)c1 [Example 6, (S)—N1-((4,4″-difluoro-[1,1′:3′,1″-terphenyl]-5′-yl)methyl)pentane-1,2,5-triaminium chloride]
Enhanced Activity in E. coli [1]: ≥512x
Enhanced Activity in P. aeruginosa [2]: ≥16x

Cl.Cl.Cl.NCCN(CCN)Cc1cc(C(F)(F)F)cc(C(F)(F)F)c1 [Example 8, 2-ammonio-1-((2-ammonioethyl)(3,5-bis(trifluoromethyl)benzyl)-14-azanyl)ethan-1-ylium chloride]
Enhanced Activity in E. coli [1]: <2x
Enhanced Activity in P. aeruginosa [2]: <2x

Cl.Cl.NC[C@H](N)CCc1cc(-c2ccc(F)cc2)cc(-c2ccc(F)cc2)c1 [Example 12, (R)-4-(4,4″-difluoro-[1,1′:3′,1″-terphenyl]-5′-yl)butane-1,2-diaminium chloride]
Enhanced Activity in E. coli [1]: ≥32x
Enhanced Activity in P. aeruginosa [2]: <2x

Cl.Cl.Cl.NCCN(CCN)Cc1cc(-c2ccc(F)cc2)cc(-c2ccc(F)cc2)c1 [Example 7, N1-(2-ammonioethyl)-N1-((4,4″-difluoro-[1,1′:3′,1″-terphenyl]-5′-yl)methyl)ethane-1,2-diaminium chloride]
Enhanced Activity in E. coli [1]: ≥512x
Enhanced Activity in P. aeruginosa [2]: ≥16x

CC(N)CC[C@H](N)CNCc1cc(C(F)(F)F)cc(C(F)(F)F)c1.Cl.Cl.Cl (stereo partly drawn) [Example 4, (2S)—N^1-(3,5-bis(trifluoromethyl)benzyl)hexane-1,2,5-triaminium Chloride]
Enhanced Activity in E. coli [1]: <2x
Enhanced Activity in P. aeruginosa [2]: <2x

CC(C)(C)c1cc(CNC[C@@H](N)CCCN)cc(C(C)(C)C)c1.Cl.Cl.Cl [Example 2, (S)—N^1-(3,5-di-tert-butylbenzyl)pentane-1,2,5-triaminium Chloride]
Enhanced Activity in E. coli [1]: ≥8x
Enhanced Activity in P. aeruginosa [2]: <2x
